# Source: patent publication US20090294381A1, “METHODS FOR CONTROLLING PH IN WATER SANITIZED BY CHEMICAL OR ELECTROLYTIC CHLORINATION” (ZODIAC POOL CARE, INC., priority 2005, published 2009)
# Where two headings read alike, the source gives them in different places.
# Key:
# [1] = cited from earlier work
# Chlorella vulgaris = experiment: Algae growth in nutrient medium, serial dilution tubes, visual bottom pellicle formation; format: cell-based; design: key: +++ indicates good growth; ++ indicates scant growth; + indicates very low growth; − indicates no growth
# Description: An algae nutrient medium was prepared by mixing the following with 940 mL deionized (DI) water:
# Primary stocks were made by including each of the test compounds in the table below in DI as 100 mL aliquots of 1000 ppm solutions. Working stocks in algae media were made as 128 ppm solutions (13 mL/100 mL DI). These solutions were serially diluted and placed into disposable borosilicate tubes, each containing 5 mL of algae medium. The highest theoretical concentration of each compound tested was 64 ppm; as a result of the serial dilution, concentrations of 32, 16, 8, 4, 2, 1, 0.5, and 0.25 ppm were tested. Each tube as inoculated with 50 μL of 10-12 day old Chlorella vulgaris, having an approximate density of 3.0×10^5 cells/mL. Growth was evaluated in a semi-quantitative fashion by visually observing bottom pellicle formation, which was compared to 2 controls. In the table below, +++ indicates good growth, ++ indicates scant growth, + indicates very low growth, and − indicates no growth.
# [2] = Phosphate removal in full sized swimming pools via Nature2 G cartridge; conditions: Example 6: 7 pools, 15,000 to 27,000 gallons, about 1.0 ppm phosphate, 900 grams per cartridge
# Excerpt: Sufficient sodium phosphate was broadcast to water in 7 full sized swimming pools, ranging in size from 15,000 to 27,000 gallons, to give a phosphate concentration of about 1.0 ppm (calculated as ortho-phosphate). The pools were allowed to mix for at least one hour. A Nature^2 G sized cartridge containing 900 grams of lanthanum chloride was connected to each pool water circulation system, and pumping through the cartridge was initiated, delivering lanthanum to the water. Water samples were taken at intervals and analyzed to determine turbidity, phosphate levels, and lanthanum levels, and in some cases, pH and total alkalinity. Six of the pools had surface cleaners in constant use and the remaining pool used a pool service. Each of the pools was filtered using a pleated cartridge filter. Turbidity of 6 of the 7 pools returned to starting levels (before lanthanum was added to precipitate out the phosphate) after 48 hours. A minimum of 90% of phosphate was removed from each of the pools.
# [3] = Phosphate removal and turbidity in 250 gallon mini-pool
# Description: A 250 gallon mini-pool was filled with tap water and balanced with calcium chloride, sodium bicarbonate, sodium bisulfate, and sodium hypochlorite. Sufficient sodium phosphate was added to the pool to give a phosphate concentration of approximately 1.0 ppm (calculated as ortho-phosphate). While mixing, lanthanum chloride was added to the water, where it combined with the phosphate and caused formation of a precipitate. The amount of lanthanum chloride added was sufficient to reduce phosphate concentration to less than 100 ppb. The water was allowed to mix (via stirring) for 15 minutes. […] Samples were taken at intervals during the study, and analyzed for turbidity, phosphate level, and lanthanum level, and in some cases, for pH and total alkalinity. […]
# A 250 gallon mini-pool was filled with tap water and balanced with calcium chloride, sodium bicarbonate, sodium bisulfate, and sodium hypochlorite. Sufficient sodium phosphate was added to the pool to give a phosphate concentration of approximately 1.0 ppm (calculated as ortho-phosphate). […] Samples were taken at intervals during the study, and analyzed for turbidity, phosphate level, and zinc level, and in some cases, for pH and total alkalinity. […]
compound,measurement,setting,value
O=P([O-])([O-])[O-].[La+3] [LaPO4],log Ksp,[1]; metal phosphates,−25.7
O=P([O-])([O-])[O-].O=P([O-])([O-])[O-].[Cu+2].[Cu+2].[Cu+2] [Cu3(PO4)2],log Ksp,[1]; metal phosphates,−36.9
O=P([O-])([O-])[O-].[Ce+3] [CePO4],log Ksp,[1]; metal phosphates,−26.2
[OH-].[OH-].[Zn+2] [Zn(OH)2],log Ksp,[1]; metal hydroxides,−16.5
[Cu+2].[OH-].[OH-] [Cu(OH)2],log Ksp,[1]; metal hydroxides,−19.3
[OH][Sn][OH] [Sn(OH)2],log Ksp,[1]; metal hydroxides,−26.5
[Ce+3].[OH-].[OH-].[OH-] [Ce(OH)3],log Ksp,[1]; metal hydroxides,−22.3
O=P([O-])([O-])[O-].[Al+3] [AlPO4],log Ksp,[1]; metal phosphates,−20.0
CCCCCCCCCCCCN.Cl [Dodecylamine HCl],Growth of Chlorella vulgaris (bottom pellicle formation),Chlorella vulgaris; 0.25 ppm test compound,−
same,Growth of Chlorella vulgaris (bottom pellicle formation),Chlorella vulgaris; 0.5 ppm test compound,−
same,Growth of Chlorella vulgaris (bottom pellicle formation),Chlorella vulgaris; 1 ppm test compound,−
same,Growth of Chlorella vulgaris (bottom pellicle formation),Chlorella vulgaris; 2 ppm test compound,−
same,Growth of Chlorella vulgaris (bottom pellicle formation),Chlorella vulgaris; 4 ppm test compound,−
same,Growth of Chlorella vulgaris (bottom pellicle formation),Chlorella vulgaris; 8 ppm test compound,−
same,Growth of Chlorella vulgaris (bottom pellicle formation),Chlorella vulgaris; 16 ppm test compound,−
same,Growth of Chlorella vulgaris (bottom pellicle formation),Chlorella vulgaris; 32 ppm test compound,−
same,Growth of Chlorella vulgaris (bottom pellicle formation),Chlorella vulgaris; 64 ppm test compound,−
O=P([O-])([O-])[O-].O=P([O-])([O-])[O-].[Zn+2].[Zn+2].[Zn+2] [Zn3(PO4)2],log Ksp,[1]; metal phosphates,−35.3
[OH][Al]([OH])[OH] [Al(OH)3],log Ksp,[1]; metal hydroxides,−32.7
[Ce+4].[OH-].[OH-].[OH-].[OH-] [Ce(OH)4],log Ksp,[1]; metal hydroxides,−47.7
Zinc borate,Growth of Chlorella vulgaris (bottom pellicle formation),Chlorella vulgaris; 0.25 ppm test compound,+
same,Growth of Chlorella vulgaris (bottom pellicle formation),Chlorella vulgaris; 0.5 ppm test compound,+
same,Growth of Chlorella vulgaris (bottom pellicle formation),Chlorella vulgaris; 1 ppm test compound,−
same,Growth of Chlorella vulgaris (bottom pellicle formation),Chlorella vulgaris; 2 ppm test compound,−
same,Growth of Chlorella vulgaris (bottom pellicle formation),Chlorella vulgaris; 4 ppm test compound,−
same,Growth of Chlorella vulgaris (bottom pellicle formation),Chlorella vulgaris; 8 ppm test compound,−
same,Growth of Chlorella vulgaris (bottom pellicle formation),Chlorella vulgaris; 16 ppm test compound,−
same,Growth of Chlorella vulgaris (bottom pellicle formation),Chlorella vulgaris; 32 ppm test compound,−
same,Growth of Chlorella vulgaris (bottom pellicle formation),Chlorella vulgaris; 64 ppm test compound,−
O=S(=O)([O-])[O-].[Cu+2] [CuSO4],Growth of Chlorella vulgaris (bottom pellicle formation),Chlorella vulgaris; 0.25 ppm test compound,++
same,Growth of Chlorella vulgaris (bottom pellicle formation),Chlorella vulgaris; 0.5 ppm test compound,++
same,Growth of Chlorella vulgaris (bottom pellicle formation),Chlorella vulgaris; 1 ppm test compound,+
same,Growth of Chlorella vulgaris (bottom pellicle formation),Chlorella vulgaris; 2 ppm test compound,−
same,Growth of Chlorella vulgaris (bottom pellicle formation),Chlorella vulgaris; 4 ppm test compound,−
same,Growth of Chlorella vulgaris (bottom pellicle formation),Chlorella vulgaris; 8 ppm test compound,−
same,Growth of Chlorella vulgaris (bottom pellicle formation),Chlorella vulgaris; 16 ppm test compound,−
same,Growth of Chlorella vulgaris (bottom pellicle formation),Chlorella vulgaris; 32 ppm test compound,−
same,Growth of Chlorella vulgaris (bottom pellicle formation),Chlorella vulgaris; 64 ppm test compound,−
[La+3].[OH-].[OH-].[OH-] [La(OH)3],log Ksp,[1]; metal hydroxides,−18.5
[Cl][La]([Cl])[Cl] [lanthanum chloride],phosphate removed,[2],≥ 90%
same,Turbidity reduction,[3]; Example 5: within two hours of beginning filtration (diatomaceous earth),97%
[Cl-].[Cl-].[Zn+2] [zinc chloride],phosphate reduction,"[3]; Example 7: start approx. 1.0 ppm phosphate, within 3 hours, sand filtration",more than 90%
